Measurements: patent US10813929B2, “Treating cancer with ATR inhibitors” (VERTEX PHARMACEUTICALS INCORPORATED, priority 2011, dated 2020)

Columns and labels:
[1] = tested on: HeLa, PSN1, MiaPaca cells; experiment: Radiosensitivity assays of FIGS. 8 to 12 (clonogenic survival, foci, cell cycle); type: cell-based
Method: Small scale clonogenic survival assays were performed on HeLa cells treated with the different ATR inhibitors at increasing concentrations followed by irradiation at 6 Gy. Data is plotted as decrease in clonogenic survival in relation to the DMSO-treated cells for both irradiated (SF 6 Gy, pink line) and unirradiated cells (plating efficiency, PE; blue line). A high degree of increased radiosensitivity can be seen as a large decrease in survival after irradiation accompanied by a small decrease in unirradiated survival at a specific drug concentration.
FIG. 9. […] PSN1 and MiaPaca cells were plated at low densities, treated with the drugs indicated and assessed for clonogenic survival. • B) Clonogenic survival of PSN1, MiaPaca, and MRCS cells pretreated with Compounds 821, 822, 823 and 824 drugs followed by irradiation. Cells were plated at low densities, treated with drugs indicated 1 h prior to irradiation and assessed for clonogenic survival.
MiaPaca cells were plated at low densities and drug was added at various time points in relation to the 4 Gy radiation treatment: 1 h prior to IR, 5 min after IR, 2 h or 4 h after IR; and removed at various time points. […] Clonogenic survival was assessed after 14 days. […]
FIG. 11. […] The percentage of cells containing more than a certain number of foci was quantitated. • B) Time course of DNA damage foci. […]

pancreatic cancer cells = experiment: Cell cycle analysis by flow cytometry after irradiation; type: cell-based; settings: 1 μM VE-821 1 h prior to 6 Gy; FIG. 7 (hypoxic), FIG. 4
Method: VE-821 (1 μM) was added 1 h prior to 6 Gy irradiation and left for the duration of the experiment. Cells were lifted and fixed at 12 h or 24 h after irradiation, stained with propidium iodide and analysed for cell cycle distribution by flow cytometry (n=3) Cells were pre-incubated under hypoxic (0.5% O2) conditions for 6 h and 1 μM VE-821 was added 1 h prior to irradiation (6 Gy). Cells were transferred to normoxia 1 h after irradiation and were lifted and fixed at 12 h or 24 h after irradiation, stained with propidium iodide and analysed for cell cycle distribution by flow cytometry (n=3). Cells growing in 6-well dishes were treated with 1 μM VE-821 drug 1 h prior to 6 Gy irradiation. Cells were incubated for 6 h before irradiation under oxia (21% O2) or hypoxia (0.5% O2) using tightly sealed chambers. At multiple time points, cells were lifted in trypsin and fixed in 70% ethanol and stored at 4° C. Cells were incubated with propidium iodide (50 μg/ml in PBS containing 200 μg/ml RNAse) for 1 h at room temperature and analysed by flow cytometry (FACSort, Becton Dickinson). Cell cycle phase was quantitated using ModFit Cell Cycle Analysis software.

[2] = tested on: MiaPaCa pancreatic cancer xenograft; experiment: MiaPaCa pancreatic cancer xenograft model with ionizing radiation; type: in vivo; settings: FIG. 13
[3] = tested on: PSN-1 pancreatic cancer xenograft; experiment: PSN-1 pancreatic cancer xenograft model with ionizing radiation; type: in vivo; settings: PSN-1 xenograft; FIGS. 14 and 15
[4] = tested on: pancreatic cancer cell lines; experiment: Pancreatic cancer cell screen, CellTiter-Glo cell viability assay; type: cell-based
Method: All cell lines were seeded in 30 μl of tissue culture medium containing 10% FBS into 384-well opaque-bottom plates. The seeding density was based on the logarithmic growth rate of each cell line. After 24 hours, compound stock solutions were added to each well to afford a matrix consisting of 9 concentrations for VE-822 and 7 concentrations for Gemcitabine and Cisplatin. Each well contains either, agent alone or a combination of both agents. The final concentration ranges were as follows: VE-822, 0.3 nM-2 μM; Gemcitabine, 0.3 nM-0.22 μM; Cisplatin, 30 nM-20 μM. The cells were then incubated for 96 hours at 37° C. in an atmosphere of 5% CO2 and 95% humidity.
This assay measures the number of viable cells in a culture based on the quantitation of ATP, which is present in metabolically active cells.
CellTiter-Glo Reagent (Promega, Madison, Wis., USA) was prepared according to the manufacturer's instructions and added 96 hours after compound addition (25 μl/well) to measure cell viability. Luminescence signal was measured with the PHERAStarFS (BMG Labtech, Cary, N.C., USA) automated plate reader. […]
Raw luminescence CellTiter-Glo (CTG) values were normalized to the mean CTG value for the negative control DMSO-treated samples on each assay plate. IC50 values for chemotoxic alone were calculated using DMSO-normalized cell survival values for the samples treated with chemotoxic compound alone. […]

| SMILES | sensitization of cancer cells to radiation therapy [1] | damage-induced cell cycle checkpoints (pancreatic cancer cells) | antitumor effects of ionizing radiation (tumor volume over time) [2] | antitumor effects of ionizing radiation (tumor volume over time) [3] | synergy with cisplatin and gemcitabine in pancreatic cancer cell lines ([4]; maximum shift in IC50 of each chemotoxic, 96 hours, FIG. 18) | synergy (shift in IC50 of chemotoxic) in pancreatic cancer cell lines ([4]; with chemotoxics, FIG. 19) |
| --- | --- | --- | --- | --- | --- | --- |
| CS(=O)(=O)c1ccc(-c2cnc(N)c(C(=O)Nc3ccccc3)n2)cc1 [VE-821] | sensitize cancer cells to radiation therapy | disrupts damage-induced cell cycle checkpoints |  |  |  |  |
| CNCc1ccc(-c2cc(-c3nc(-c4ccc(S(=O)(=O)C(C)C)cc4)cnc3N)on2)cc1 [VE-822] | sensitize cancer cells to radiation therapy |  | enhances the antitumor effects of ionizing radiation | enhances the antitumor effects of ionizing radiation | Synergizes with Cisplatin and Gemcitabine | Greater than 3 fold |
